Reference: PMC9821843, “Powerful Potential of Polyfluoroalkyl-Containing 4-Arylhydrazinylidenepyrazol-3-ones for Pharmaceuticals” (Molecules, 2022)
Converted amounts (≈) assume the structure as drawn.

Columns and labels:
[1] = target: T1, human erythrocyte acetylcholinesterase (AChE, EC 3.1.1.7) (Homo sapiens, UniProt P22303); experiment: Inhibition of human erythrocyte acetylcholinesterase (Ellman assay); format: biochemical; conditions: read-out: Inhibition % at 20 µM, Human AChE
T1 construct: human erythrocyte acetylcholinesterase (AChE, EC 3.1.1.7); purchased Sigma-Aldrich (Saint Louis, MO, USA); host or cells: human erythrocytes
How it was run: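 Colorimetric Ellman read-out with acetylthiocholine iodide substrate and DTNB, under standard reversible-inhibitor conditions, 2% (v/v) final DMSO. Enzyme-free blanks corrected for non-enzymatic hydrolysis; triplicate runs, IC50 from regression plots.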

[2] = target: T2, equine serum butyrylcholinesterase (BChE, EC 3.1.1.8) (Equus caballus, UniProt P81908); experiment: Inhibition of equine serum butyrylcholinesterase (Ellman assay); format: biochemical; conditions: read-out: Inhibition % at 20 µM, Equine BChE
T2 construct: equine serum butyrylcholinesterase (BChE, EC 3.1.1.8); purchased Sigma-Aldrich (Saint Louis, MO, USA); host or cells: equine serum
How it was run: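 Ellman colorimetric assay with 0.02 unit/mL BChE, 1 mM butyrylthiocholine iodide and 0.33 mM DTNB, 2% (v/v) DMSO final; substrate added after enzyme-compound mixing. Residual activity versus inhibitor-free control, blanks without enzyme; triplicates, IC50 by linear regression.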

human dermal fibroblasts = experiment: Cytotoxicity against human dermal fibroblasts (MTT assay); format: cell-based; conditions: Fibroblast, 72 h, MTT, n.a. = inactive, read-out: IC50, Human Dermal Fibroblasts
Procedure: (§1) Cytotoxicity of compounds was evaluated using a culture of human dermal fibroblasts, which were isolated in the Laboratory of Cell Cultures of the Institute of Medical Cell Technologies, Ekaterinburg, Russia and a HeLa tumor cell line obtained at the shared research facility «Vertebrate cell culture collection» of the Institute of Cytology of the Russian Academy of Sciences, St. Petersburg, Russia. Cells were seeded in 96-well plates in the inoculum dose of 2 × 10^5 cells/mL and cultured for 24 h in DMEM, with 1% glutamine in the presence of 10% fetal bovine serum and gentamicin (50 mg/L) at 37 °C, with humidified atmosphere of 5% CO2. Then compounds, which were dissolved in DMSO, were added to the wells at the final concentrations of 10^–7, 10^–6, 10^–5 and 10^–4 M. The cells were incubated with compounds for 72 h, after which cell viability was assessed using the standard MTT assay. The assay was carried out in four replicates with negative (culture medium), positive (solution of the cytotoxic drug camptothecin at a concentration of 3 mM) controls and the solvent control (DMSO). The results of the MTT assay were evaluated on a Tecan Infinite M200 PRO (Tecan Austria GmbH, Grödig, Austria) plate spectrophotometer by comparing the optical density of a formazan solution at 570 nm in the assay and control wells. The half maximal inhibitory concentrations (IC50) were calculated by AAT Bioquest-calculator (https://www.aatbio.com/tools/ic50-calculator (accessed on 14 November 2022)).

[3] = system: Epidermophyton floccosum RCPF F 1659/17; experiment: Antifungal susceptibility testing, E. floccosum; conditions: for MIC: Epidermophyton floccosum, RCPFF1659/17, read-out: MIC for fungi strains inhibition, E. floccosum
Text: (§2) The solvent was DMSO. […] In each test, a growth control and a sterility control were used.

[4] = system: Microsporum canis RCPF F 1643/1585; experiment: Antifungal susceptibility testing, M. canis; conditions: for MIC: Microsporum canis, RCPFF1643/1585, read-out: MIC for fungi strains inhibition, M. canis
Text: as §2

[5] = target: porcine liver carboxylesterase (CES, EC 3.1.1.1) (Sus scrofa, UniProt Q29550); experiment: Inhibition of porcine liver carboxylesterase (4-NPA colorimetric assay); format: biochemical; conditions: 20 µM; n.a. = inactive at 20 µM; mean ± SEM, n = 3
Text: The following enzymes were purchased from Sigma-Aldrich (Saint Louis, MO, USA): porcine liver carboxylesterase (CES, EC 3.1.1.1), human erythrocyte acetylcholinesterase (AChE, EC 3.1.1.7) and equine serum butyrylcholinesterase (BChE, EC 3.1.1.8). Substrates for CES, AChE and BChE were 4-nitrophenyl acetate (4-NPA), acetylthiocholine iodide (ATCh) and butyrylthiocholine iodide (BTCh), respectively, and the colorimetric reagent for the AChE and BChE assays was 5,5’-dithio-bis-(2-nitrobenzoic acid) (DTNB) (Sigma-Aldrich). All the kinetic experiments were performed under standard conditions, according to the protocol of IPAC RAS for a reversible inhibitors study.
The CES (porcine liver) activity was assessed colorimetrically in 0.1 M K/Na phosphate buffer pH 8.0, 25 °C, by measuring the absorbance of 4-nitrophenol at 405 nm. Final enzyme and substrate (4-NPA) concentrations were 0.02 unit/mL and 1 mM, respectively. Reagent blanks included all constituents except enzyme.
Test compounds were dissolved in DMSO. Reaction mixtures contained a final DMSO concentration of 2% (v/v). Enzyme inhibition was first assessed at a single concentration of 20 µM for each compound after a 5 min incubation at 25 °C in three separate experiments. […] Substrate was then added and residual enzyme activity relative to an inhibitor-free control was measured using a Bio-Rad Benchmark Plus microplate reader (Marnes-la-Coquette, France).
Measurements were performed in a Bio-Rad Benchmark Plus microplate reader. Each experiment was performed in triplicate. Plots, linear regressions and values of IC50, were determined using Origin 6.1 for Windows, OriginLab (Northampton, MA, USA). Results were calculated using GraphPad Prism version 6.05 for Windows, GraphPad Software (La Jolla, CA, USA) and presented as mean ± SEM.

HeLa tumor cell line = experiment: Cytotoxicity against HeLa cells (MTT assay); format: cell-based, human; conditions: for IC50: Homo sapiens, HeLa, 72 h, MTT, n.a. = inactive, read-out: IC50, HeLa; for Selectivity Index (SI): ratio of average IC50 in normal fibroblasts to average IC50 for HeLa
Procedure: as §1

[6] = system: Candida albicans RCPF Y 401/NCTC 885/653; experiment: Antifungal susceptibility testing, C. albicans; conditions: NCTC885, read-out: MIC for fungi strains inhibition, C. albicans
Text: as §2

[7] = system: Trichophyton rubrum RCPF F 1408; experiment: Antifungal susceptibility testing, T. rubrum; conditions: for MIC: Trichophyton rubrum, RCPFF1408, read-out: MIC for fungi strains inhibition, T. rubrum
Text: as §2

T2 sequence (P81908 whole entry): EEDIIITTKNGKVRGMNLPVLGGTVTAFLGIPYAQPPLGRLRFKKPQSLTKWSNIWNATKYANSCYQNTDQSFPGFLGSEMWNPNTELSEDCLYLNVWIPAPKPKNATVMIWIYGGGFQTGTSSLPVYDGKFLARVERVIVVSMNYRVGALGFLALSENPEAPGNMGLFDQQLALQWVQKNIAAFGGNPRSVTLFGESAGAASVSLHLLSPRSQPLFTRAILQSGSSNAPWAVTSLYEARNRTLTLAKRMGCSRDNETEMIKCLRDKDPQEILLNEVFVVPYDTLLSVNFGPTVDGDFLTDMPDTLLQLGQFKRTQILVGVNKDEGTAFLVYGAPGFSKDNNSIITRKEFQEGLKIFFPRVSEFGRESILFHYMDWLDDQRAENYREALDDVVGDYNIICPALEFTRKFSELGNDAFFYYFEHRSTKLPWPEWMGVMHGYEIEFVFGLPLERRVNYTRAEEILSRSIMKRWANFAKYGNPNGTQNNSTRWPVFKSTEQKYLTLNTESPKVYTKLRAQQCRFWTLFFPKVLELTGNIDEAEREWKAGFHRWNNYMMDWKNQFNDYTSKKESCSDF
porcine liver carboxylesterase (CES, EC 3.1.1.1), sequence (Q29550 19-566): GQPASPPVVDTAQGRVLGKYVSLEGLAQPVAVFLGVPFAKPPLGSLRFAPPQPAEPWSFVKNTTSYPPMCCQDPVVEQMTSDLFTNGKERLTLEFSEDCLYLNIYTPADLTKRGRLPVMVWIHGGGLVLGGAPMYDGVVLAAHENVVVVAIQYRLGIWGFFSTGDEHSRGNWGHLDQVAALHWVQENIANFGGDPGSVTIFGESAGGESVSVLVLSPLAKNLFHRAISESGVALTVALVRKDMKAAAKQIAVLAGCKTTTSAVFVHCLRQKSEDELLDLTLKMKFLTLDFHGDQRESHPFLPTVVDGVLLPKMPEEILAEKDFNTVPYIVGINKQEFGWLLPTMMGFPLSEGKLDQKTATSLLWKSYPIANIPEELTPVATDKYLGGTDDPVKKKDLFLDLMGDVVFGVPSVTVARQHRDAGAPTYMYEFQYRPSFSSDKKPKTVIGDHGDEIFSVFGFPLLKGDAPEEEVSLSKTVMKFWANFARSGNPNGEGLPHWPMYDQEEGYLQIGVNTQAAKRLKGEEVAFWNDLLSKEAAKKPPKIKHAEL
T1 sequence (P22303 32-617 isoform P22303-2 limits assumed): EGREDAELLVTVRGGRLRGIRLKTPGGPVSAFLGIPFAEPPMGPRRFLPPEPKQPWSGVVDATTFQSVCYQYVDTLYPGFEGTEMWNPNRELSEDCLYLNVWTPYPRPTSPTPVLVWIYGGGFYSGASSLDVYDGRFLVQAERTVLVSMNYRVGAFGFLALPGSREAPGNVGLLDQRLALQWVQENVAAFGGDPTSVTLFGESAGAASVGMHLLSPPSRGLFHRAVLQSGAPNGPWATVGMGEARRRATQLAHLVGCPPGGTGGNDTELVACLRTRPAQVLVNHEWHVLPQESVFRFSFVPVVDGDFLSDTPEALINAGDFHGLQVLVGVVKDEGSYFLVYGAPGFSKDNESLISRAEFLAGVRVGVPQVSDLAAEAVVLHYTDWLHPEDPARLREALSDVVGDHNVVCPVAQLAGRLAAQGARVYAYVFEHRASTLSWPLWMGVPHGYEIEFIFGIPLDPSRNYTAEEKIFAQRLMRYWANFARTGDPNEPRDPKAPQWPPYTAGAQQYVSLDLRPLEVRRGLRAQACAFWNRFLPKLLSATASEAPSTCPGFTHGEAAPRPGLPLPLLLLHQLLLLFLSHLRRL

| SMILES | inhibition at 20 µM [1] | inhibition at 20 µM [2] | IC50 (human dermal fibroblasts) | MIC [3] | MIC [4] | inhibition at 20 µM [5] | IC50 (HeLa tumor cell line) | Selectivity Index (SI) (HeLa tumor cell line) | MIC [6] | MIC [7] | MIC for fungi strains inhibition, E. floccosum [3] | MIC for fungi strains inhibition, M. canis [4] | MIC for fungi strains inhibition, T. rubrum [7] |
| --- | --- | --- | --- | --- | --- | --- | --- | --- | --- | --- | --- | --- | --- |
| O=C1NN=C(C(F)(F)F)/C1=N/Nc1ccccc1 [5a, (Z)-4-(2-Phenylhydrazinylidene)-5-(trifluoromethyl)-2,4-dihydro-3H-pyrazol-3-one] | 12.8 ± 2.3% | 10.7 ± 1.8% | – | – | – | – | – | – | – | – | – | – | – |
| Cc1ccc(N/N=C2\C(=O)NN=C2C(F)(F)F)cc1 [5b, (4Z)-4-[2-(4-Methylphenyl)hydrazinylidene]-5-(trifluoromethyl)-2,4-dihydro-3H-pyrazol-3-one] | – | – | 8.18 ± 0.73 µM | > 200 µg/mL | 100 µg/mL (≈ 370 µM) | 10.1 ± 1.7% | 2.26 ± 0.14 µM | 3.62 | 200 µg/mL (≈ 740 µM) | 50 µg/mL (≈ 185 µM) | – | – | – |
| O=C1NN=C(C(F)(F)F)/C1=N/Nc1ccc(Br)cc1 [5c, (4Z)-4-[2-(4-Bromophenyl)hydrazinylidene]-5-(trifluoromethyl)-2,4-dihydro-3H-pyrazol-3-one] | 3.4 ± 0.6% | 5.9 ± 1% | – | 12.5 µg/mL (≈ 37.3 µM) | 25 µg/mL (≈ 74.6 µM) | 5.5 ± 0.9% | – | – | > 200 µg/mL | 12.5 µg/mL (≈ 37.3 µM) | 12.5 µg/mL | 25 µg/mL | 12.5 µg/mL |
| Cc1ccc(N/N=C2\C(=O)N(C)N=C2C(F)(F)F)cc1 [5d, (4Z)-2-Methyl-4-[2-(4-methylphenyl)hydrazinylidene]-5-(trifluoromethyl)-2,4-dihydro-3H-pyrazol-3-one] | 4.5 ± 1.1% | – | – | 200 µg/mL (≈ 704 µM) | 200 µg/mL (≈ 704 µM) | – | – | – | > 200 µg/mL | 200 µg/mL (≈ 704 µM) | – | – | – |
| Cc1ccc(N/N=C2\C(=O)N(c3ccccc3)N=C2C(F)(F)F)cc1 [5f, (4Z)-4-[2-(4-Methylphenyl)hydrazinylidene]-2-phenyl-5-(trifluoromethyl)-2,4-dihydro-3H-pyrazol-3-one] | – | – | 20.5 ± 2.52 µM | 200 µg/mL (≈ 578 µM) | 200 µg/mL (≈ 578 µM) | – | 4.49 ± 0.18 µM | 4.56 | 200 µg/mL (≈ 578 µM) | > 200 µg/mL | – | – | – |
| CS(=O)(=O)c1ccc(N/N=C2\C(=O)N(c3ccccc3)N=C2C(F)(F)F)cc1 [5m, (4Z)-4-(2-[4-(Methylsulfonyl)phenyl]hydrazinylidene)-2-phenyl-5-(trifluoromethyl)-2,4-dihydro-3H-pyrazol-3-one] | 5.5 ± 0.5% | 4 ± 1% | – | > 200 µg/mL | > 200 µg/mL | 20.4 ± 1.6% | – | – | > 200 µg/mL | 100 µg/mL (≈ 244 µM) | – | – | – |
| Cc1ccc(N/N=C2\C(=O)N(c3ccc(S(N)(=O)=O)cc3)N=C2C(F)(F)F)cc1 [5p, (4Z)-2-[4-(Aminosulfonyl)phenyl]-4-[2-(4-methylphenyl)hydrazinylidene]-5-(trifluoromethyl)-2,4-dihydro-3H-pyrazol-3-one] | – | 3.6 ± 0.9% | – | > 200 µg/mL | > 200 µg/mL | 5.7 ± 1% | – | – | > 200 µg/mL | > 200 µg/mL | – | – | – |
| Cc1ccc(N/N=C2\C(=O)NN=C2C(F)(F)C(F)(F)F)cc1 [6a, (4Z)-4-[2-(4-Methylphenyl)hydrazinylidene]-5-(pentafluoroethyl)-2,4-dihydro-3H-pyrazol-3-one] | – | 3.3 ± 0.9% | 13 ± 2.56 µM | – | – | 7.8 ± 1.4% | 1.47 ± 0.13 µM | 8.83 | – | – | – | – | – |
| Cc1ccc(N/N=C2\C(=O)N(c3ccccc3)N=C2C(F)(F)C(F)(F)F)cc1 [6b, (4Z)-4-[2-(4-Methylphenyl)hydrazinylidene]-5-(pentafluoroethyl)-2-phenyl-2,4-dihydro-3H-pyrazol-3-one] | 8.3 ± 1.4% | 5.7 ± 1.3% | 98.6 ± 6.32 µM | – | – | – | 65.9 ± 5.22 µM | 1.49 | – | – | – | – | – |
| Cc1ccc(N/N=C2\C(=O)NN=C2C(F)(F)C(F)(F)C(F)(F)F)cc1 [7a, (4Z)-5-(Heptafluoropropyl)-4-[2-(4-methylphenyl)hydrazinylidene]-2,4-dihydro-3H-pyrazol-3-one] | 35.6 ± 0.8% | 10.5 ± 1.1% | – | 200 µg/mL (≈ 540 µM) | > 200 µg/mL | 9.9 ± 0.7% | – | – | > 200 µg/mL | > 200 µg/mL | – | – | – |
| Cc1ccc(N/N=C2\C(=O)N(c3ccccc3)N=C2C(F)(F)C(F)(F)C(F)(F)F)cc1 [7b, (4Z)-5-(Heptafluoropropyl)-4-[2-(4-methylphenyl)hydrazinylidene]-2-phenyl-2,4-dihydro-3H-pyrazol-3-one] | 12.6 ± 1.8% | 4.5 ± 1.2% | 73.8 ± 5.32 µM | – | – | – | 59.7 ± 6.34 µM | 1.24 | – | – | – | – | – |
| CC1=NNC(=O)/C1=N\Nc1ccc(C)cc1 [9a, (4Z)-5-Methyl-4-[2-(4-methylphenyl)hydrazinylidene]-2,4-dihydro-3H-pyrazol-3-one] | – | 4.3 ± 1% | 24.3 ± 1.82 µM | – | – | – | 3.16 ± 0.25 µM | 7.68 | – | – | – | – | – |
| CC1=NN(c2ccccc2)C(=O)/C1=N\Nc1ccc(C)cc1 [9b, (4Z)-5-Methyl-4-[2-(4-methylphenyl)hydrazinylidene]-2-phenyl-2,4-dihydro-3H-pyrazol-3-one] | – | – | 24.1 ± 3.21 µM | > 200 µg/mL | > 200 µg/mL | 10.3 ± 2.4% | 46.5 ± 1.98 µM | 0.52 | > 200 µg/mL | > 200 µg/mL | – | – | – |
